Test results reported in patent US20250136932A1, “COMPOSITIONS AND METHODS FOR CULTURING AND MAINTAINING TROPHOBLAST STEM CELLS” (NORTH CAROLINA STATE UNIVERSITY, priority 2022, published 2025).

What was measured:
CTB21126R+ term hTSCs = test: Immunofluorescence marker expression in term CTB-derived hTSCs; format: cell-based, human; details: term hTSCs switched from TSCM+UK5099+AlbuMAX to TSCM
Protocol: Immunofluorescence analysis. For immunofluorescence analysis, cells were grown on glass-bottom culture dishes coated with 3 μg/ml vitronectin and 1 μg/ml of Laminin 521. Cells were fixed either using 4% paraformaldehyde in PBS for 10 min, permeabilized with 0.5% Triton X-100 for 5 min and blocked in 3% BSA/PBS with 0.1% human IgG and 0.3% Triton X-100 for 1 hr. Cells were then incubated overnight with the primary antibody diluted in blocking buffer. The following primary antibodies were used: anti-KRT7 (SCB, 1:50), anti-KRT7 (CST, 1:500), rabbit anti-hCG (1:100), mouse anti-hCG (1:100), anti-YAP (1:200), anti-TFAP2C (1:400), anti-P63 (1:600), anti-GATA3 (1:500), anti-TEAD4 (1:250), anti-CDX2 (1:300), anti-VE-Cadherin (1:400), anti-HLA-G (1:300), anti-syncytin (1:50). Corresponding isotype controls (rabbit polyclonal IgG, rabbit XP IgG, mouse IgG1, and mouse IgG2a) were used at primary antibody concentrations. Alexa Fluor 488- or Alexa Fluor 647-conjugated secondary antibodies were used as secondary antibodies. Nuclei were stained with DAPI and all samples were imaged using a Zeiss LSM 710 or 880 laser scanning confocal microscope (Carl Zeiss, Germany).
Immunostaining. For immunofluorescence analysis, 3×10^4 cells were grown on 24-well glass bottom plates coated with 3 μg/ml of vitronectin and 1 μg/ml of Laminin 521. […]

[1] = test system: CDX2+ hTSCs from CTBs from term placentas; test: Derivation and support of CDX2+ hTSCs from term placental CTBs; format: cell-based, human; details: component added to or exchanged in TSCM
Protocol: Differentiation of term CTBs to hTSCs. Term CTBs that were previously frozen were thawed directly into DTM7 medium, or TSCMUA medium (see, e.g., Table 1). To assess DTME medium, cells cultured in TSCMUA were passaged into DTME.
Culture of hTSCs. hTSCs were cultured in 2 ml of DTM7 at 37 C in 5% CO2. Culture medium was replaced every 2 days. When hTSCs reached 70-90% confluence, they were dissociated with TrypLE at 37° C. for 5-10 minutes and passaged to a new 6-well plate pre-coated with 3 μg/ml of vitronectin and 1 μg/ml of Laminin 521 at a 1:3-1:4 split ratio and were supplemented with Y-27632 upon passage to aid in single cell attachment. Cells were routinely passaged approximately every 4-6 days. hTSCs at passages 2+ (typically passage 5+) were used for analysis.
hTSC cell culture. hTSCs were cultured as previously described by Okae et al. with minor modifications. Additionally, similar protocols were used for the TSCMUA, DMT7, and DTME media described further herein. […]

| Molecule | Role of component in CDX2 expression (CTB21126R+ term hTSCs) | Role of component in hTSC derivation from term CTB [1] |
| --- | --- | --- |
| N#CC(=Cc1cn(-c2ccccc2)c2ccccc12)C(=O)O [UK5099, α-cyano-β-(1-phenylindol-3-yl)-acrylate] | important for CDX2 expression | necessary |
| lysophosphatidic acid [LPA] |  | cannot replace AlbuMAX |
